Source: ChEMBL document CHEMBL2086319, “From the first selective non-peptide AT(2) receptor agonist to structurally related antagonists” (J Med Chem, 2012)
Activity calls are given as the source filed them. The calls are words filed in the database; no cut-off is given here.

What was measured:
[1] = Displacement of [125I]Ang 2 from pig uterus membrane AT2 receptor after 1.5 hrs by micro-counter; set-up: species or system Sus scrofa
[2] = Displacement of [125I]Ang 2 from rat liver membrane AT1 receptor after 2 hrs by micro-counter
NG108-15 [3] = assay: Effect on neurite outgrowth in mouse/rat NG108-15 cells assessed as morphological changes at 10 uM after 3 days by phase contrast microscopy; assay type: functional, cell-based
NG108-15 [4] = assay: Inhibition of Ang 2-induced neurite outgrowth in mouse/rat NG108-15 cells at 10 nM after 3 days by phase contrast microscopy; assay type: functional, cell-based
NG108-15 [5] = assay: Induction of neurite outgrowth in mouse/rat NG108-15 cells at 10 nM after 3 days by phase contrast microscopy; assay type: functional, cell-based
NG108-15 [6] = assay: Induction of neurite outgrowth in mouse/rat NG108-15 cells at 10 nM after 3 days by phase contrast microscopy in presence of PD123,319; assay type: functional, cell-based
NG108-15 [7] = assay: Induction of neurite outgrowth in mouse/rat NG108-15 cells at 1 nM after 3 days by phase contrast microscopy in presence of PD123,319; assay type: functional, cell-based

| Compound | Ki [1] | Ki [2] | also measured |
| --- | --- | --- | --- |
| CCCCOC(=O)NS(=O)(=O)c1sc(CC(C)C)cc1-c1cccc(CN(C)S(C)(=O)=O)c1 | > 10000 nM | > 10000 nM | – |
| CCCCOC(=O)NS(=O)(=O)c1sc(CC(C)C)cc1-c1cccc(CN(Cc2cccnc2)C(C)=O)c1 | 83 nM | > 10000 nM | – |
| Cc1cc(Cn2cnc3c2C[C@@H](C(=O)O)N(C(=O)C(c2ccccc2)c2ccccc2)C3)ccc1N(C)C | – | – | Activity (NG108-15 [3]): inactive |
| CCCCOC(=O)NS(=O)(=O)c1sc(CC(C)C)cc1-c1cccc(Cn2ccnc2-c2cccs2)c1 | 28 nM | > 10000 nM | – |
| CCCCOC(=O)NS(=O)(=O)c1sc(CC(C)C)cc1-c1cccc(CN(C)C=O)c1 | 55 nM | > 10000 nM | – |
| CCCCOC(=O)NS(=O)(=O)c1sc(CC(C)C)cc1-c1cccc(CN(Cc2ccccc2)C(=O)CCCC)c1 | 35 nM | > 10000 nM | – |
| CCCCOC(=O)NS(=O)(=O)c1sc(CC(C)C)cc1-c1cccc(Cn2ccnc2-c2ccccn2)c1 | 28 nM | > 10000 nM | – |
| CCCCOC(=O)NS(=O)(=O)c1sc(CC(C)C)cc1-c1cccc(CN(CC)C(C)=O)c1 | 29 nM | > 10000 nM | – |
| CCCCOC(=O)NS(=O)(=O)c1sc(CC(C)C)cc1-c1cccc(Cn2ccnc2C)c1 | 29 nM | > 10000 nM | – |
| CCCCOC(=O)NS(=O)(=O)c1sc(CC(C)C)cc1-c1cccc(CN(C)C(=O)OCC)c1 | 45 nM | > 10000 nM | – |
| CCCCOC(=O)NS(=O)(=O)c1sc(CC(C)C)cc1-c1cccc(CN(CC)S(=O)(=O)c2cccs2)c1 | 133 nM | > 10000 nM | – |
| CCCCOC(=O)NS(=O)(=O)c1sc(CC(C)C)cc1-c1cccc(Cn2cnc3ncccc32)c1 | 44 nM | > 10000 nM | – |
| CCCCOC(=O)NS(=O)(=O)c1sc(CC(C)C)cc1-c1cccc(CCn2ccnc2)c1 | 118 nM | > 10000 nM | – |
| CCCCOC(=O)NS(=O)(=O)c1sc(CC(C)C)cc1-c1cccc(CN(C(=O)c2ccccc2)c2ccc(C)cc2)c1 | 46 nM | > 10000 nM | – |
| CCCCOC(=O)NS(=O)(=O)c1sc(CC(C)C)cc1-c1cccc(CN(CC(F)(F)F)C(C)=O)c1 | 72 nM | > 10000 nM | – |
| CCCCOC(=O)NS(=O)(=O)c1sc(CC(C)C)cc1-c1cccc(CN(Cc2cccnc2)C(=O)c2ccccc2)c1 | 47 nM | > 10000 nM | inhibition (NG108-15 [4]): Active |
| CCCCOC(=O)NS(=O)(=O)c1sc(CC(C)C)cc1-c1cccc(CN2C(=O)CN(C)C2=O)c1 | 37 nM | > 10000 nM | – |
| CCCCOC(=O)NS(=O)(=O)c1sc(CC(C)C)cc1-c1cccc(CN(Cc2ccccc2)C(C)=O)c1 | 79 nM | > 10000 nM | – |
| CCCCOC(=O)NS(=O)(=O)c1sc(CC(C)C)cc1-c1cccc(C(=O)Cn2cnc3ccccc32)c1 | 20 nM | > 10000 nM | inhibition (NG108-15 [4]): Active; Activity (NG108-15 [5]): inactive; Activity (NG108-15 [6]): Active |
| CCCCOC(=O)NS(=O)(=O)c1sc(CC(C)C)cc1-c1cccc(Cn2cccn2)c1 | 110 nM | > 10000 nM | – |

| Compound | Ki [1] | Ki [2] | also measured |
| --- | --- | --- | --- |
| CCCCOC(=O)NS(=O)(=O)c1sc(CC(C)C)cc1-c1cccc(CN2CCCC2=O)c1 | 224 nM | > 10000 nM | – |
| CCCCOC(=O)NS(=O)(=O)c1sc(CC(C)C)cc1-c1cccc(Cn2cnc3cccnc32)c1 | 66 nM | > 10000 nM | – |
| CCCCOC(=O)NS(=O)(=O)c1sc(CC(C)C)cc1-c1cccc(Cn2ccnc2-c2ccsc2)c1 | 33 nM | > 10000 nM | – |
| CCCCOC(=O)NS(=O)(=O)c1sc(CC(C)C)cc1-c1cccc(Cn2ccnc2CC)c1 | 8 nM | > 10000 nM | – |
| CCCCOC(=O)NS(=O)(=O)c1sc(CC(C)C)cc1-c1cccc(Cn2ccnc2CCCC)c1 | 10 nM | > 10000 nM | – |
| CCCCOC(=O)NS(=O)(=O)c1sc(CC(C)C)cc1-c1cccc(CN(C(C)=O)c2ccc(C)cc2)c1 | 120 nM | > 10000 nM | – |
| CCCCOC(=O)NS(=O)(=O)c1sc(CC(C)C)cc1-c1cccc(CN(CC)C(=O)c2cccs2)c1 | 2.2 nM | > 10000 nM | – |
| CCCCOC(=O)NS(=O)(=O)c1sc(CC(C)C)cc1-c1cccc(Cn2ccnc2C(C)=O)c1 | 17 nM | > 10000 nM | – |
| CCCCOC(=O)NS(=O)(=O)c1sc(CC(C)C)cc1-c1cccc(CN(C)C(=O)C(=O)OCC)c1 | 1.6 nM | > 10000 nM | Activity (NG108-15 [7]): Active |
| CCCCOC(=O)NS(=O)(=O)c1sc(CC(C)C)cc1-c1cccc(Cn2ccnc2Cl)c1 | 9.2 nM | > 10000 nM | inhibition (NG108-15 [4]): Active; Activity (NG108-15 [5]): inactive; Activity (NG108-15 [6]): Active |
| CCCCOC(=O)NS(=O)(=O)c1sc(CC(C)C)cc1-c1cccc(CN(C)C(=O)c2cccs2)c1 | 13 nM | > 10000 nM | – |
| CCCCOC(=O)NS(=O)(=O)c1sc(CC(C)C)cc1-c1cccc(Cn2ccc(C(F)(F)F)n2)c1 | 233 nM | > 10000 nM | – |
| CCCCOC(=O)NS(=O)(=O)c1sc(CC(C)C)cc1-c1cccc(CN(CC(F)(F)F)C(=O)C2CC2)c1 | 163 nM | > 10000 nM | – |
| CCCCOC(=O)NS(=O)(=O)c1sc(CC(C)C)cc1-c1cccc(CN(C)C(=O)CCCC)c1 | 56 nM | > 10000 nM | – |
| CCCCOC(=O)NS(=O)(=O)c1sc(CC(C)C)cc1-c1cccc(CN(C)C(C)=O)c1 | 29 nM | > 10000 nM | – |
| CCCCOC(=O)NS(=O)(=O)c1sc(CC(C)C)cc1-c1cccc(CN(Cc2ccccc2)C(=O)c2cccs2)c1 | 670 nM | > 10000 nM | – |
| CCCCOC(=O)NS(=O)(=O)c1sc(CC(C)C)cc1-c1cccc(Cn2ccnc2-c2ccccc2)c1 | 67 nM | > 10000 nM | – |
| CCCCOC(=O)NS(=O)(=O)c1sc(CC(C)C)cc1-c1cccc(Cn2cnc3ccccc32)c1 | 32 nM | > 10000 nM | – |
| CCCCOC(=O)NS(=O)(=O)c1sc(CC(C)C)cc1-c1cccc(CN2C(=O)CCC2=O)c1 | 147 nM | > 10000 nM | – |
